Assay results: patent US20240150293A1, “SPIROCYCLOHEXANE DERIVATIVES, PHARMACEUTICAL COMPOSITIONS CONTAINING THEM AND THEIR USES AS ANTI-APOPTOTIC INHIBITORS” (LES LABORATOIRES SERVIER, priority 2021, published 2024)
Like-named read-outs stand apart in the source and are kept apart here.

Legend:
NCI-H929 cell lines = assay: In vitro cytotoxicity, CellTiter-Glo (CTG) assay (Example B, Method B); assay type: cell-based; conditions: Homo sapiens, NCI-H929, 48 h, NCI-H929 cells, 48 h incubation, read-out: C50
Experimental: Cellular viability was monitored with the cell viability assay (Cell Titer-Glo®) on NCI-H929 cell lines. The CellTiter-Glo® (CTG) Luminescent Cell Viability Assay (from Promega) is a homogeneous method to determine the number of viable cells in culture based on quantitation of the ATP present, which signals the presence of metabolically active cells.
Concentration response of test compounds are performed with 10 mM stock solutions (DMSO), 11-points curve, in a 384-well compound plate. The assay plate is prepared by stamping 120 nL from compound dilution plate of all different concentrations (e.g. 10 mM to have final 30 μM assay test) into a cell culture microplate, using Echo acoustic liquid handling (Labcyte, Beckman). 40 μl of cell solution is added and cells are incubated with compounds for 48 h at 37° C., 5% CO2. CTG was added to the cells (according to the manufacturer instructions) and luminescence intensity was recorded using the Pherastar plate reader (BMG).
This assay provides in vitro cellular efficacy of compounds of Formula (I) tested, measuring the C50, defined as the concentration needed to reach 50% of the cellular viability.

[1] = biological target: Cy5-labelled Mcl1 (amino acids 171-321) C286S protein (UniProtKB Q07820) (Homo sapiens (Human), UniProt Q07820, C286S); assay: Inhibition of Mcl-1 by the fluorescence quenching assay (Example A, Method B); assay type: binding
Cy5-labelled Mcl1 (amino acids 171-321) C286S protein, sequence (Q07820 171-321 C286S): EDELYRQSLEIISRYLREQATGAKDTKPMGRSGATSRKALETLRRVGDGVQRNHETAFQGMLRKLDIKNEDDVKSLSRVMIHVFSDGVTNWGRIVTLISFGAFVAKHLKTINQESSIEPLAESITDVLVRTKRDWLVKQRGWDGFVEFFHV
Summary of the method: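 Eleven-point compound series incubated 2 h at room temperature with 1 nM Cy5-tagged protein and quencher-labelled PUMA peptide at 10, 20 or 400 nM in HEPES/NaCl/Tween 20, pH 7.4, 5% DMSO. IC50 for 50% fluorescence increase by 4-parameter fit, then Ki derived (complete cKi or estimated eKi).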

Ki ([1]; Ki determined from IC50)	Ki [1]	Compound	IC50 (NCI-H929 cell lines)
0.177 nM		Cc1ccc2c(c1)CN(C[C@@H](C)COc1ccnc3c1[C@H](C)CCC3)[C@]21CC[C@](Nc2ccc(F)c(Cl)c2)(C(=O)O)CC1 [Example 54, (1s,4S)-4-(3-chloro-4-fluoroanilino)-5′-methyl-2′-[(2R)-2-methyl-3-{[(5R)-5-methyl-5,6,7,8-tetrahydroquinolin-4-yl]oxy}propyl]-2′,3′-dihydrospiro[cyclohexane-1,1′-isoindole]-4-carboxylic acid]	177 nM
0.104 nM		Cc1ccc2c(c1)CN(C[C@@H](C)COc1ccnc3c1[C@H](C)CCC3)[C@]21CC[C@](Nc2cccc(Cl)c2)(C(=O)O)CC1 [Example 55, (1s,4S)-4-(3-chloroanilino)-5′-methyl-2′-[(2R)-2-methyl-3-{[(5R)-5-methyl-5,6,7,8-tetrahydroquinolin-4-yl]oxy}propyl]-2′,3′-dihydrospiro[cyclohexane-1,1′-isoindole]-4-carboxylic acid]	181 nM
0.762 nM		C[C@@H](COc1ccnc2c1[C@H](C)CCC2)CN1Cc2cc(Cl)ccc2[C@]12CC[C@@](Nc1cccc(Cl)c1)(C(=O)O)CC2 [Example 56, (1s,4S)-5′-chloro-4-(3-chloroanilino)-2′-[(2R)-2-methyl-3-{[(5R)-5-methyl-5,6,7,8-tetrahydroquinolin-4-yl]oxy}propyl]-2′,3′-dihydrospiro[cyclohexane-1,1′-isoindole]-4-carboxylic acid]	151 nM
	0.282 nM	C[C@@H](COc1ccnc2c1[C@H](C)CCC2)C[C@H]1Cc2ccccc2[C@]12CC[C@@](Nc1cccc(Cl)c1)(C(=O)O)CC2 [Example 653, (1r,2′S,4S)-4-(3-chloroanilino)-2′-[(2R)-2-methyl-3-{[(5R)-5-methyl-5,6,7,8-tetrahydroquinolin-4-yl]oxy}propyl]-2′,3′-dihydrospiro[cyclohexane-1,1′-indene]-4-carboxylic acid]	113 nM
	0.585 nM	C[C@@H](COc1ccnc2c1[C@H](C)CCC2)C[C@H]1Cc2ccccc2[C@]12CC[C@@](Nc1ccc(F)c(Cl)c1F)(C(=O)O)CC2 [Example 707, (1r,2′S,4S)-4-(3-chloro-2,4-difluoroanilino)-2′-[(2R)-2-methyl-3-{[(5R)-5-methyl-5,6,7,8-tetrahydroquinolin-4-yl]oxy}propyl]-2′,3′-dihydrospiro[cyclohexane-1,1′-indene]-4-carboxylic acid]	230 nM
	2.01 nM	C[C@@H](COc1ccnc2c1[C@H](C)CCC2)C[C@H]1Cc2ccccc2[C@]12CC[C@@](Nc1ccc(Cl)c(Cl)c1)(C(=O)O)CC2 [Example 715, (1r,2′S,4S)-4-(3,4-dichloroanilino)-2′-[(2R)-2-methyl-3-{[(5R)-5-methyl-5,6,7,8-tetrahydroquinolin-4-yl]oxy}propyl]-2′,3′-dihydrospiro[cyclohexane-1,1′-indene]-4-carboxylic acid]	1290 nM
	2.28 nM	C[C@@H](COc1ccnc2c1[C@H](C)CCC2)C[C@H]1Cc2ccccc2[C@]12CC[C@@](Oc1cccc(Cl)c1)(C(=O)O)CC2 [Example 717, (1r,2′S,4S)-4-(3-chlorophenoxy)-2′-[(2R)-2-methyl-3-{[(5R)-5-methyl-5,6,7,8-tetrahydroquinolin-4-yl]oxy}propyl]-2′,3′-dihydrospiro[cyclohexane-1,1′-indene]-4-carboxylic acid]	367 nM
	1.06 nM	C[C@@H](COc1ccnc2c1[C@H](C)CCC2)CC1=Cc2c(Cl)c(Cl)ccc2[C@]12CC[C@@](Nc1cccc(Cl)c1)(C(=O)O)CC2 [Example 750, (1r,4R)-4′,5′-dichloro-4-(3-chloroanilino)-2′-[(2R)-2-methyl-3-{[(5R)-5-methyl-5,6,7,8-tetrahydroquinolin-4-yl]oxy}propyl]spiro[cyclohexane-1,1′-indene]-4-carboxylic acid]	378 nM
	0.0813 nM	C[C@@H](COc1ccnc2c1[C@H](C)CCC2)C[C@H]1Cc2cccc(F)c2[C@]12CC[C@@](Nc1cccc(Cl)c1)(C(=O)O)CC2 [Example 763, (1r,2′S,4S)-4-(3-chloroanilino)-7′-fluoro-2′-[(2R)-2-methyl-3-{[(5R)-5-methyl-5,6,7,8-tetrahydroquinolin-4-yl]oxy}propyl]-2′,3′-dihydrospiro[cyclohexane-1,1′-indene]-4-carboxylic acid]	118 nM
	0.518 nM	C[C@@H](COc1ccnc2c1[C@H](C)CCC2)C[C@H]1Cc2cc(F)c(F)cc2[C@]12CC[C@@](Nc1cccc(Cl)c1)(C(=O)O)CC2 [Example 775, (1r,2′S,4S)-4-(3-chloroanilino)-5′,6′-difluoro-2′-[(2R)-2-methyl-3-{[(5R)-5-methyl-5,6,7,8-tetrahydroquinolin-4-yl]oxy}propyl]-2′,3′-dihydrospiro[cyclohexane-1,1′-indene]-4-carboxylic acid]	84.4 nM
	0.177 nM	C[C@@H](COc1ccnc2c1[C@H](C)CCC2)C[C@H]1Cc2cc(Cl)ccc2[C@]12CC[C@@](Nc1cccc(Cl)c1)(C(=O)O)CC2 [Example 778, (1r,2′S,4S)-5′-chloro-4-(3-chloroanilino)-2′-[(2R)-2-methyl-3-{[(5R)-5-methyl-5,6,7,8-tetrahydroquinolin-4-yl]oxy}propyl]-2′,3′-dihydrospiro[cyclohexane-1,1′-indene]-4-carboxylic acid]	67.2 nM
	0.254 nM	COc1ccc2c(c1)[C@]1(CC[C@@](Nc3cccc(Cl)c3)(C(=O)O)CC1)[C@H](C[C@@H](C)COc1ccnc3c1[C@H](C)CCC3)C2 [Example 782, (1r,2′R,4R)-4-(3-chloroanilino)-6′-methoxy-2′-[(2R)-2-methyl-3-{[(5R)-5-methyl-5,6,7,8-tetrahydroquinolin-4-yl]oxy}propyl]-2′,3′-dihydrospiro[cyclohexane-1,1′-indene]-4-carboxylic acid]	235 nM
	0.122 nM	CCOc1ccc2c(c1)[C@]1(CC[C@@](Nc3ccc(F)c(Cl)c3)(C(=O)O)CC1)[C@@H](C[C@@H](C)COc1ccnc3c1[C@H](C)CCC3)C2 [Example 785, (1r,2′S,4S)-4-(3-chloro-4-fluoroanilino)-6′-ethoxy-2′-[(2R)-2-methyl-3-{[(5R)-5-methyl-5,6,7,8-tetrahydroquinolin-4-yl]oxy}propyl]-2′,3′-dihydrospiro[cyclohexane-1,1′-indene]-4-carboxylic acid]	61 nM
	0.0573 nM	CCCOc1ccc2c(c1)[C@]1(CC[C@@](Nc3cccc(Cl)c3)(C(=O)O)CC1)[C@@H](C[C@@H](C)COc1ccnc3c1[C@H](C)CCC3)C2 [Example 787, (1r,2′S,4S)-4-(3-chloroanilino)-2′-[(2R)-2-methyl-3-{[(5R)-5-methyl-5,6,7,8-tetrahydroquinolin-4-yl]oxy}propyl]-6′-propoxy-2′,3′-dihydrospiro[cyclohexane-1,1′-indene]-4-carboxylic acid]	103 nM
	0.241 nM	CC(C)COc1ccc2c(c1)[C@]1(CC[C@@](Nc3cccc(Cl)c3)(C(=O)O)CC1)[C@@H](C[C@@H](C)COc1ccnc3c1[C@H](C)CCC3)C2 [Example 788, (1r,2′S,4S)-4-(3-chloroanilino)-2′-[(2R)-2-methyl-3-{[(5R)-5-methyl-5,6,7,8-tetrahydroquinolin-4-yl]oxy}propyl]-6′-(2-methylpropoxy)-2′,3′-dihydrospiro[cyclohexane-1,1′-indene]-4-carboxylic acid]	262 nM
	0.135 nM	C[C@@H](COc1ccnc2c1[C@H](C)CCC2)C[C@H]1Cc2ccc(OC3CCCC3)cc2[C@]12CC[C@@](Nc1cccc(Cl)c1)(C(=O)O)CC2 [Example 789, (1r,2′S,4S)-4-(3-chloroanilino)-6′-(cyclopentyloxy)-2′-[(2R)-2-methyl-3-{[(5R)-5-methyl-5,6,7,8-tetrahydroquinolin-4-yl]oxy}propyl]-2′,3′-dihydrospiro[cyclohexane-1,1′-indene]-4-carboxylic acid]	270 nM
	0.764 nM	C[C@@H](COc1ccnc2c1[C@H](C)CCC2)C[C@@H]1Cc2ccc(OCC3CC3)cc2[C@]12CC[C@@](Nc1cccc(Cl)c1)(C(=O)O)CC2 [Example 790, (1r,2′R,4R)-4-(3-chloroanilino)-6′-(cyclopropylmethoxy)-2′-[(2R)-2-methyl-3-{[(5R)-5-methyl-5,6,7,8-tetrahydroquinolin-4-yl]oxy}propyl]-2′,3′-dihydrospiro[cyclohexane-1,1′-indene]-4-carboxylic acid]	1460 nM
	0.124 nM	C[C@@H](COc1ccnc2c1[C@H](C)CCC2)C[C@H]1Cc2ccc(OCC3CC3)cc2[C@]12CC[C@@](Nc1cccc(Cl)c1)(C(=O)O)CC2 [Example 791, (1r,2′S,4S)-4-(3-chloroanilino)-6′-(cyclopropylmethoxy)-2′-[(2R)-2-methyl-3-{[(5R)-5-methyl-5,6,7,8-tetrahydroquinolin-4-yl]oxy}propyl]-2′,3′-dihydrospiro[cyclohexane-1,1′-indene]-4-carboxylic acid]	192 nM
